Legend:
[1] = molecular target: T1, human adrenergic-α2C receptor (Homo sapiens, UniProt P18825); experiment: Radioligand binding experiment for hα2C-adrenoceptor ([3H]raulwolscine); details: [3H]raulwolscine 1 nM, 60 minutes at 25° C.; for IC50: read-out: h-α2C pIC50 (converted)
T1 construct: expressed in transfected cells; host or cells: CHO cells, stably transfected; membrane preparation
T1 sequence (P18825 1-462): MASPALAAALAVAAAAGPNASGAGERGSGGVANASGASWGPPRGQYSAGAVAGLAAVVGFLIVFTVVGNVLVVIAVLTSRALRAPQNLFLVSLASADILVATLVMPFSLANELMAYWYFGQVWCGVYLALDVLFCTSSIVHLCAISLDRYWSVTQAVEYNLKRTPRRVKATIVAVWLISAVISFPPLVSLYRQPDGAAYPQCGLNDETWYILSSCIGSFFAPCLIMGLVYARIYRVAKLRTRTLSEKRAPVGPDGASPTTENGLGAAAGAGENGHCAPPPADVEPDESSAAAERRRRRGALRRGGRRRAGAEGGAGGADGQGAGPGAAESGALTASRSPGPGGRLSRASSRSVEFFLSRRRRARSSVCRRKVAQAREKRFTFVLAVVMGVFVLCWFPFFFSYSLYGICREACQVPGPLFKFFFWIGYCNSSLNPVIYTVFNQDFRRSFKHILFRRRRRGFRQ
Procedure: (§1) The interaction of the compounds of Formula (I) with α2C-adrenoceptor receptors was assessed in in vitro radioligand binding experiments. In general, a low concentration of a radioligand with a high binding affinity for a particular receptor or transporter is incubated with a sample of a tissue preparation enriched in a particular receptor or transporter or with a preparation of cells expressing cloned human receptors in a buffered medium. During the incubation, the radioligand binds to the receptor or transporter. When equilibrium of binding is reached, the receptor bound radioactivity is separated from the non-bound radioactivity, and the receptor- or transporter-bound activity is counted. The interaction of the test compounds with the receptor is assessed in competition binding experiments. Various concentrations of the test compound are added to the incubation mixture containing the receptor- or transporter preparation and the radioligand. The test compound in proportion to its binding affinity and its concentration inhibits binding of the radioligand. The radioligand used for […] receptor binding was [^3H]-raulwolscine.
(§2) CHO cells, stabile transfected with human adrenergic-α2A, -α2B or α2C receptor cDNA, were cultured in Dulbecco's Modified Eagle's Medium (DMEM)/Nutrient mixture Ham's F12 (ratio 1:1)(Gibco, Gent-Belgium) supplemented with 10% heat inactivated fetal calf serum (Life Technologies, Merelbeke-Belgium) and antibiotics (100 IU/ml penicillin G, 100 μg/ml streptomycin sulphate, 110 μg/ml pyruvic acid and 100 μg/ml L-glutamine). One day before collection, cells were induced with 5 mM sodiumbutyrate. Upon 80-90% of confluence, cells were scraped in phosphate buffered saline without Ca^2+ and Mg^2+ and collected by centrifugation at 1500×g for 10 minutes. The cells were homogenised in Tris-HCl 50 mM using an Ultraturrax homogenizer and centrifuged for 10 minutes at 23,500×g. The pellet was washed once by resuspension and rehomogenization and the final pellet was resuspended in Tris-HCl, divided in 1 ml aliquots and stored at −70° C.
(§3) Membranes were thawed and re-homogenized in incubation buffer (glycylglycine 25 mM, pH 8.0). In a total volume of 500 μl, 2-10 μg protein was incubated with [^3H]raulwolscine (NET-722) (New England Nuclear, USA) (1 nM final concentration) with or without competitor for 60 minutes at 25° C. followed by rapid filtration over GF/B filter using a Filtermate196 harvester (Packard, Meriden, Conn.). Filters were rinsed extensively with ice-cold rinsing buffer (Tris-HCl 50 mM pH 7.4). Filter-bound radioactivity was determined by scintillation counting in a Topcount (Packard, Meriden, Conn.) and results were expressed as counts per minute (cpm). Non-specific binding was determined in the presence of 1 μM oxymetazoline for hα2A- and hα2B receptors and 1 μM spiroxatrine for hα2C receptors.
(§4) Data from assays in the presence of compound were calculated as a percentage of total binding measured in the absence of test compound. Inhibition curves, plotting percent of total binding versus the log value of the concentration of the test compound, were automatically generated, and sigmoidal inhibition curves were fitted using non-linear regression. The pIC50 values of test compounds were derived from individual curves.

[2] = molecular target: T2, human adrenergic-α2A receptor (Homo sapiens, UniProt P08913); experiment: Radioligand binding experiment for hα2A-adrenergic receptor ([3H]raulwolscine); details: [3H]raulwolscine 1 nM, 60 minutes at 25° C.; for IC50: read-out: h-α2A pIC50 (converted)
T2 construct: expressed in transfected cells; host or cells: CHO cells, stably transfected; membrane preparation
T2 sequence (P08913 1-465): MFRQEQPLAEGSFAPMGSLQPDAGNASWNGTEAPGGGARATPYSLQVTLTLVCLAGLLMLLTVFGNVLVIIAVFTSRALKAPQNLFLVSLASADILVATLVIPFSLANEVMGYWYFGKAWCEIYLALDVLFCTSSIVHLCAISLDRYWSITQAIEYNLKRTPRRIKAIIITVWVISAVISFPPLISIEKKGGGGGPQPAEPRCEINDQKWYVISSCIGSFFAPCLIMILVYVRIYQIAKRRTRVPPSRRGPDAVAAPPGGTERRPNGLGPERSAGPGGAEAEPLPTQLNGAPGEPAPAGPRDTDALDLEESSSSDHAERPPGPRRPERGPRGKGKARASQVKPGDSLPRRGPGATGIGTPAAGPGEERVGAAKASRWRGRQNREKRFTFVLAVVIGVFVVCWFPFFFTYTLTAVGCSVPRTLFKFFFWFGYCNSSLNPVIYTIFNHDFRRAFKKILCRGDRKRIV
Procedure: as §1, §2, §3, §4

5HT-transporter = molecular target: T3, 5HT-transporter (Homo sapiens, UniProt P31645); experiment: Binding experiment for the 5HT-transporter ([3H]paroxetine, human platelet membranes); details: [3H]paroxetine 0.5 nM, 60 min at 25° C.; for IC50: read-out: h-5HTT pIC50 (converted)
T3 construct: Human platelet membranes (Oceanix Biosciences Corporation, Hanover, Md., USA) were thawed; tissue Oceanix Biosciences Corporation, Hanover, Md., USA; host or cells: human platelet membranes
Procedure: as §1
Human platelet membranes (Oceanix Biosciences Corporation, Hanover, Md., USA) were thawed, diluted in buffer (Tris-HCl 50 mM, 120 mM NaCl and 5 mM KCl) and quickly (max 3 s) homogenised with an Ultraturrax homogenizer. […] Incubation was stopped by rapid filtration of the incubation mixture over GF/B filters, pre-wetted with 0.1% polyethyleneamine, using a Filtermate196 harvester (Packard, Meriden, Conn.). Filters were rinsed extensively with ice-cold buffer and radioactivity on the filters was counted in a Topcount liquid scintillation counter (Packard, Meriden, Conn.). Data were expressed as cpm. Imipramine (at 1 μM final concentration) was used to determine the non-specific binding.
as §4

T3 sequence (P31645 whole entry): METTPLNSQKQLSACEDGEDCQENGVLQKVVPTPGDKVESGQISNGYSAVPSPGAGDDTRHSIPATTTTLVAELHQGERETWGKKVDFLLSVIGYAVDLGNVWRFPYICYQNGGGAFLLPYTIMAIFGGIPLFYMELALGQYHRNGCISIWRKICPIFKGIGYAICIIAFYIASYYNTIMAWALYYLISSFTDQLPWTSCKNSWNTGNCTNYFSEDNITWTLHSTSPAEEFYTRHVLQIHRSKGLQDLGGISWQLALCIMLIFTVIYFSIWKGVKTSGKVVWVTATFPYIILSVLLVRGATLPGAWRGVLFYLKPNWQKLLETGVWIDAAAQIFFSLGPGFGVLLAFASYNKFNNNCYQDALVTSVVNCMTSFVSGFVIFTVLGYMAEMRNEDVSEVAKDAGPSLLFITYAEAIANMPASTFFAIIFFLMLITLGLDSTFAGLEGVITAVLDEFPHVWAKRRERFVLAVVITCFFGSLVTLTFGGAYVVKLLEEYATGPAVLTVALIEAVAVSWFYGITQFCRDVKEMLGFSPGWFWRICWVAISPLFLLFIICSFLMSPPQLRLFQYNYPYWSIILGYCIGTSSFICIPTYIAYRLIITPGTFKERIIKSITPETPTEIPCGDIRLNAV

Structure (SMILES) | IC50 [1] | IC50 [2] | IC50 (5HT-transporter) | h-α2C pIC50 [1] | h-α2A pIC50 [2] | h-5HTT pIC50 (5HT-transporter)
CC(C)(C)OC(=O)NCc1ccc(Cn2ccnc(NC3CCN(Cc4ccc5ccccc5c4)CC3)c2=O)cc1 [1-34] | 100 nM | 251 nM | 79.4 nM |  |  | 
CN(CCCn1ccnc(NC2CCN(Cc3ccc4ccccc4c3)CC2)c1=O)C(=O)OC(C)(C)C [1-35] | 25.1 nM | 316 nM | 39.8 nM |  |  | 
COC(=O)CN(C)Cc1ccc(-n2ccnc(NC3CCN(Cc4ccc5ccccc5c4)CC3)c2=O)cc1 [1-36] | 50.1 nM | 501 nM | 158 nM |  |  | 
COC(=O)CCCC(=O)NCc1ccc(-n2ccnc(NC3CCN(Cc4ccc5ccccc5c4)CC3)c2=O)cc1 [1-37] | 39.8 nM | 631 nM | 12.6 nM |  |  | 
C#CCN(C)C(=O)Cn1ccnc(NC2CCN(Cc3ccc4ccccc4c3)CC2)c1=O [1-38] | 63.1 nM | 398 nM | 1580 nM |  |  | 
CN(C)CCN(C)Cc1ccc(-n2ccnc(NC3CCN(Cc4ccc5ccccc5c4)CC3)c2=O)cc1 [1-39] | 15.8 nM | 79.4 nM | 63.1 nM |  |  | 
CCCNC(=O)NCc1ccc(-n2ccnc(NC3CCN(Cc4ccc5ccccc5c4)CC3)c2=O)cc1 [1-40] | 100 nM | 1260 nM | 50.1 nM |  |  | 
O=C(NCc1ccc(-n2ccnc(NC3CCN(Cc4ccc5ccccc5c4)CC3)c2=O)cc1)NCC1CCCCC1 [1-41] |  |  |  | 7.2 | 6.2 | 7.2
O=C(Cc1ccccc1)NCc1ccc(-n2ccnc(NC3CCN(Cc4ccc5ccccc5c4)CC3)c2=O)cc1 [1-42] | 31.6 nM | 501 nM | 5.01 nM |  |  | 
O=C(CCc1ccccc1)NCc1ccc(-n2ccnc(NC3CCN(Cc4ccc5ccccc5c4)CC3)c2=O)cc1 [1-43] | 39.8 nM | 251 nM | 6.31 nM |  |  | 
CN(C)CCNC(=O)NCc1ccc(-n2ccnc(NC3CCN(Cc4ccc5ccccc5c4)CC3)c2=O)cc1 [1-44] | 12.6 nM | 63.1 nM | 7.94 nM |  |  | 
COCCNC(=O)NCc1ccc(-n2ccnc(NC3CCN(Cc4ccc5ccccc5c4)CC3)c2=O)cc1 [1-45] | 31.6 nM | 398 nM | 25.1 nM |  |  | 
COCCCNC(=O)NCc1ccc(-n2ccnc(NC3CCN(Cc4ccc5ccccc5c4)CC3)c2=O)cc1 [1-46] | 39.8 nM | 501 nM | 63.1 nM |  |  | 
COC(=O)CCNC(=O)NCc1ccc(-n2ccnc(NC3CCN(Cc4ccc5ccccc5c4)CC3)c2=O)cc1 [1-47] |  |  |  | 7.5 | 6.3 | 7.6
O=C(NCc1ccccc1)NCc1ccc(-n2ccnc(NC3CCN(Cc4ccc5ccccc5c4)CC3)c2=O)cc1 [1-48] | 39.8 nM | 316 nM | 10 nM |  |  | 
Cc1ccc(CNC(=O)NCc2ccc(-n3ccnc(NC4CCN(Cc5ccc6ccccc6c5)CC4)c3=O)cc2)cc1F [1-49] | 39.8 nM | 501 nM | 39.8 nM |  |  | 

Structure (SMILES) | IC50 [1] | IC50 [2] | IC50 (5HT-transporter) | h-α2C pIC50 [1] | h-α2A pIC50 [2] | h-5HTT pIC50 (5HT-transporter)
O=C(NCc1ccc(-n2ccnc(NC3CCN(Cc4ccc5ccccc5c4)CC3)c2=O)cc1)NCc1cc(F)cc(C(F)(F)F)c1 [1-50] | 200 nM | 1260 nM | 63.1 nM |  |  | 
O=C(NCCCc1ccccc1)NCc1ccc(-n2ccnc(NC3CCN(Cc4ccc5ccccc5c4)CC3)c2=O)cc1 [1-51] |  |  |  | 7.1 | 6.4 | 7.8
O=C(NCc1ccc(-n2ccnc(NC3CCN(Cc4ccc5ccccc5c4)CC3)c2=O)cc1)Nc1ccccc1 [1-52] |  |  |  | 7.2 | 6.3 | 8.1
O=C(NCCCn1ccnc(NC2CCN(Cc3ccc4ccccc4c3)CC2)c1=O)Nc1ccccc1 [1-53] | 20 nM | 631 nM | 7.94 nM |  |  | 
O=C(NCc1ccc(-n2ccnc(NC3CCN(Cc4ccc5ccccc5c4)CC3)c2=O)cc1)Nc1cc(Cl)ccc1Cl [1-54] |  |  |  | 6.7 | 6.0 | 6.8
CCOC(=O)N1CCC(NC(=O)NCc2ccc(-n3ccnc(NC4CCN(Cc5ccc6ccccc6c5)CC4)c3=O)cc2)CC1 [1-55] | 100 nM | 631 nM | 63.1 nM |  |  | 
NC(=O)CCNCc1ccc(-n2ccnc(NC3CCN(Cc4ccc5ccccc5c4)CC3)c2=O)cc1 [1-56] | 25.1 nM | 251 nM | 15.8 nM |  |  | 
CN(CC(=O)N(C)C)Cc1ccc(-n2ccnc(NC3CCN(Cc4ccc5ccccc5c4)CC3)c2=O)cc1 [1-57] | 15.8 nM | 251 nM | 50.1 nM |  |  | 
CCN(CC)CCC(=O)NCc1ccc(-n2ccnc(NC3CCN(Cc4ccc5ccccc5c4)CC3)c2=O)cc1 [1-58] | 7.94 nM | 79.4 nM | 6.31 nM |  |  | 
CN(C)C(=O)CCC(=O)NCc1ccc(-n2ccnc(NC3CCN(Cc4ccc5ccccc5c4)CC3)c2=O)cc1 [1-59] | 39.8 nM | 316 nM | 31.6 nM |  |  | 
CC(=O)NCCN(C)Cc1ccc(-n2ccnc(NC3CCN(Cc4ccc5ccccc5c4)CC3)c2=O)cc1 [1-60] | 25.1 nM | 200 nM | 10 nM |  |  | 
CC(=O)NCCNCc1ccc(-n2ccnc(NC3CCN(Cc4ccc5ccccc5c4)CC3)c2=O)cc1 [1-61] | 12.6 nM | 200 nM | 10 nM |  |  | 
CC(=O)NCCCC(=O)NCc1ccc(-n2ccnc(NC3CCN(Cc4ccc5ccccc5c4)CC3)c2=O)cc1 [1-62] |  |  |  | 7.3 | 6.4 | 7.5
CN(C(=O)Cn1ccnc(NC2CCN(Cc3ccc4ccccc4c3)CC2)c1=O)c1ccccc1 [1-63] | 25.1 nM | 158 nM | 63.1 nM |  |  | 
O=C(Cn1ccnc(NC2CCN(Cc3ccc4ccccc4c3)CC2)c1=O)Nc1ccccc1 [1-64] | 31.6 nM | 158 nM | 126 nM |  |  | 
